Results taken from patent US9227956B2 (Pfizer Inc., priority 2013, dated 2016).

Tests used:
[1] = system: human PCSK9; assay: PCSK9 AlphaLISA assay, PCSK9 lowering in WT7 cells; settings: WT7 cells (Huh7 stably over-expressing human PCSK9); secreted PCSK9 by AlphaLISA; overnight incubation (16-24 h); top concentration 20 μM; read-out: Cell Based PCSK9 IC50
From the text: An in-vitro AlphaLISA assay (Perkin Elmer) was developed in order to quantitate the level of PCSK9 secreted into the cell culture media following compound treatment. To detect and measure PCSK9 protein an in-house generated anti-PCSK9 antibody was coupled to AlphaLISA acceptor beads by an external vendor (PerkinElmer) and a second internally developed anti-PCSK9 antibody with an epiptope distinct from that of the acceptor beads was biotinylated in house. Streptavidin coated-donor beads (Perkin Elmer) are also included in the assay mixture which then binds the biotinylated anti-PCSK9 antibody and in the presence of PCSK9 this donor complex and acceptor beads are brought into close proximity. […] The ability of compound to modulate PCSK9 protein levels in conditioned media by AlphaLISA was assessed in the human hepatocellular carcinoma cell line Huh7, stably over-expressing human PCSK9. […] Following plasmid transfection the stable WT7 clone was identified and maintained under Zeocin selection. Compound screening was performed in 384-well plates where WT7 cells were plated at a density of 7500 cells per well in 20 μL of tissue culture media containing compound in an eleven point, 0.5 log dilution format at a high treatment concentration of 20 μM in a final volume of 0.5% DMSO. In additional to these test compound conditions each screening plate also included wells that contained 20 μM puromycin as a positive assay control defined as high percent effect, HPE, as well as wells containing media in 0.5% DMSO as a negative treatment control defined as zero percent effect, ZPE. After overnight compound incubation (16-24 h) the tissue culture media was collected and an aliquot from each sample was transferred to individual wells of a 384-well white Optiplate (Perkin Elmer). The coupled antibodies and donor beads were added to the assay plates in a buffer composed of 30 mM Tris pH 7.4, 0.02% Tween-20 and 0.02% Casein. Anti-PCSK9 acceptor beads (final concentration of 10 μg/mL) and anti-PCSK9 biotinylated antibody (final concentration of 3 nM) were added and incubated for 30 minutes at room temperature followed by the addition of the streptavidin donor beads (final concentration 40 μg/mL) for an additional 60 minutes. Additionally a standard curve was generated where AlphaLISA reagents were incubated in wells spiked with recombinant human PCSK9 diluted in tissue culture media from 5000 ng/mL to 0.6 ng/mL. […] The test compound data were converted into percent effect, using the ZPE and HPE controls as 0% and 100% activity, respectively. The equation used for converting each well reading into percent effect was:
[formula] IC50 was then calculated and reported as the midpoint in the percent effect curve in molar units and the values are reported under the Cell Based PCSK9 IC50 (μM) column header within Table 1 Biological Data. Additionally, to monitor the selectivity of compound response for PCSK9 the level of a second secreted protein, Transferrin, was measured from the same conditioned media treated with test compound by AlphaLISA. […] To detect and quantify effects on Transferrin 0.01 mL of the culture media was transferred to a 384-well white Optiplate and 0.01 mL of media was added to bring the volume to 0.02 ml. Anti-Transferrin acceptor beads were added to a final concentration of 10 μg/mL, biotinylated anti-Transferrin at 3 nM and streptavidin donor beads at 40 μg/mL. Percent effect and IC50 for Transferrin was computed in a similar manner as that described for PCSK9.

[2] = system: human PCSK9; assay: Cell Free PCSK9 Assay (PCSK9-luciferase RNA translated in HeLa cell lysate); assay type: biochemical; settings: 30° C. for 45 minutes, luciferase readout, top concentration 100 μM
Experimental: In order to eliminate the permeability barrier inherent to the WT7 and SCHH cell-based assays a cell-free system was also established to access compound activity. […] The construct was then in-vitro transcribed using the MEGAscript T7 Kit (Life Technologies) and RNA subsequently purified incorporating the MEGAclear Kit (Life Technologies) according to manufacturer's protocols. […] Growth was in a 50 L wavebag at a rocker speed of 25 rpm and angle 6.1 with 5% CO2 and 0.2 LPM flow rate with cells harvested at a density of 2-2.5e6/ml. Lysates additionally contained 1 tablet of Roche cOmplete-EDTA protease inhibitors per 50 ml with tris(2-carboxyethyl)phosphine (Biovectra) substituted for dithiothreitol, and were clarified by an additional final centrifugation at 10,000 rpm in a Sorvall SS34 rotor at 4° C. for 10 minutes. Compound screening was performed in 384-well plates in an eleven point, 0.5 log dilution format at a top test compound concentration of 100 μM in a final volume of 0.5% DMSO. […] Upon assay completion 1 μL from each reaction solution was removed and transferred to a second 384-well Optiplate (Perkin Elmer) containing 24 μL of SteadyGlo (Promega) and signal intensity was measured on the Envision (Perkin Elmer) using the enhanced luminescence protocol. […] The test compound data were converted into percent effect, using the ZPE and HPE controls as 0% and 100% activity, respectively, applying Equation 1 above. IC50 was then calculated and reported as the midpoint in the percent effect curve in molar units and the values are reported under the Cell Free PCSK9 IC50 (μM) column header within Table 1 Biological Data.

[3] = system: PCSK9; assay: PCSK9 lowering in sandwich culture human hepatocytes (SCHH); assay type: cell-based; settings: maximum response versus vehicle
Experimental: Test compound in-vitro pharmacokinetic and pharmacodynamic relationships were measured in sandwich culture primary cryopreserved human hepatocytes. Within these studies SCHH cells (BD Biosciences IVT) were thawed at 37° C. then placed on ice, after which the cells were added to pre-warmed (37° C.) In VitroGRO-HT media and centrifuged at 50×g for 3 min. The cell pellet was re-suspended to 0.8×10^6 cells/mL in InVitroGRO-CP plating medium and cell viability determined by trypan blue exclusion. On day 1, hepatocyte suspensions were plated in BioCoat 96-well plates at a density of 80000 cells/well in a volume of 0.1 mL/well. After 18 to 24 hours of incubation at 37° C. in 5% CO2, cells were overlaid with ice-cold 0.25 mg/mL BD Matrigel Matrix Phenol Red-Free in incubation medium at 0.1 mL/well. Cultures were maintained at 37° C. in 5% CO2 in InVitroGRO-HI (FBS-free media), which was replaced every 24 hours and time course treatments were initiated on day 5. Prior to compound treatment cell plates were washed 3 times with 0.1 mL/well InVitroGRO-HI and 0.09 mL of media was added back in preparation for the compound additions. 1 uL of either DMSO or compound DMSO stocks at 30 mM, 10 mM, 3 mM and 1 mM were stamped into 96 well V bottom polypropylene plates. 0.099 mL of media was added to the compound plate and mixed thoroughly before the addition of 0.010 mL from the interim compound plate to the cell plate. […] At the indicated time, 0.08 mL of media was removed from the cell plates and frozen for subsequent analysis of secreted PCSK9 by AlphaLISA and for determination of drug levels in the media by liquid chromatography-tandem mass spectrometry (LC-MS/MS). The remaining media was then aspirated and the cell layers were washed 3× with ice cold Hanks Balanced Salt Solution (HBSS) under shaking conditions to remove the matrigel overlay and plates were then stored at −20° C. for subsequent determination of drug levels in the cells by LC-MS/MS. AlphaLISA determination of PCSK9 protein levels within the conditioned media was performed ultilizing the identical reagents and detection protocols described above for the WT7 cells.

SMILES	IC50 [1] [µM]	IC50 [2] [µM]	Sandwich Culture Hepatocyte (SCHH) PCSK9 Lowering ([3]; at 6 h at 30 uM) [% at 6 h at 30 uM]	Sandwich Culture Hepatocyte (SCHH) PCSK9 Lowering ([3]; at 8 h at 30 μM) [% at 8 h at 30 μM]
Cc1cccnc1N(C(=O)c1ccc(-c2cnn(C)c2-c2nnn(C(OC(=O)C(C)C)C(C)C)n2)cc1)[C@@H]1CCCNC1 (single isomer, unassigned) [Example 54]	> 20	12.8	29	
Cc1cccnc1N(C(=O)c1ccc(-c2cnn(C)c2-c2nnn(C(OC(=O)C(C)C)C(C)C)n2)cc1)[C@@H]1CCCNC1 (single isomer, unassigned) [Example 55]	> 19.2	19.8	40	
Cc1cccnc1N(C(=O)c1ccc(-c2cnn3cccnc23)cc1)[C@@H]1CCCNC1 [Example 1, N-(3-methylpyridin-2-yl)-N-[(3R)-piperidin-3-yl]-4-(pyrazolo[1,5-a]pyrimidin-3-yl)benzamide]	3.2	0.44		74
CCOC(=O)OC(C)OC(=O)c1c(-c2ccc(C(=O)N(c3ncccc3Cl)[C@@H]3CCCNC3)cc2)cnn1C (stereo partly drawn) [Example 8, 1-[(ethoxycarbonyl)oxy]ethyl 4-(4-{(3-chloropyridin-2-yl)[(3R)-piperidin-3-yl]carbamoyl}phenyl)-1-methyl-1H-pyrazole-5-carboxylate]	9.5	3.7		70
COC(=O)c1c(-c2ccc(C(=O)N(c3ncccc3Cl)[C@@H]3CCCNC3)cc2)cnn1C [Example 10, Methyl 4-(4-{(3-chloropyridin-2-yl)[(3R)-piperidin-3-yl]carbamoyl}phenyl)-1-methyl-1H-pyrazole-5-carboxylate]	1.5	0.64		87

The remaining lines, values ahead:

IC50 [1] [µM]	IC50 [2] [µM]	Sandwich Culture Hepatocyte (SCHH) PCSK9 Lowering ([3]; at 6 h at 30 uM) [% at 6 h at 30 uM]	Sandwich Culture Hepatocyte (SCHH) PCSK9 Lowering ([3]; at 8 h at 30 μM) [% at 8 h at 30 μM]	SMILES
> 20	25.1	8		CCC(=O)OC(C)n1nnc(-c2c(-c3ccc(C(=O)N(c4ncccc4C)[C@@H]4CCCNC4)cc3)cnn2C)n1 (single isomer, unassigned) [Example 45]
> 20	7.68	16		CCC(=O)OC(C(C)C)n1nnc(-c2c(-c3ccc(C(=O)N(c4ncccc4C)[C@@H]4CCCNC4)cc3)cnn2C)n1 (single isomer, unassigned) [Example 48]
> 20	15.4	0		CCC(=O)OC(C(C)C)n1nnc(-c2c(-c3ccc(C(=O)N(c4ncccc4C)[C@@H]4CCCNC4)cc3)cnn2C)n1 (single isomer, unassigned) [Example 49]
> 20	8.03	37		Cc1cccnc1N(C(=O)c1ccc(-c2cnn(C)c2-c2nnn(C(C)OC(=O)C(C)C)n2)cc1)[C@@H]1CCCNC1 (single isomer, unassigned) [Example 50]
> 20	3.56	48		Cc1cccnc1N(C(=O)c1ccc(-c2cnn(C)c2-c2nnn(C(C)OC(=O)C(C)C)n2)cc1)[C@@H]1CCCNC1 (single isomer, unassigned) [Example 51]
> 20	10.7	25		CCC(OC(=O)C(C)C)n1nnc(-c2c(-c3ccc(C(=O)N(c4ncccc4C)[C@@H]4CCCNC4)cc3)cnn2C)n1 (single isomer, unassigned) [Example 52]
> 20	31.8	0		CCC(OC(=O)C(C)C)n1nnc(-c2c(-c3ccc(C(=O)N(c4ncccc4C)[C@@H]4CCCNC4)cc3)cnn2C)n1 (single isomer, unassigned) [Example 53]
